What was measured:
[1] = biological target: T1, Renin (Homo sapiens, UniProt P00797); test: In vitro inhibition of purified human kidney renin
T1 sequence (P00797 whole entry): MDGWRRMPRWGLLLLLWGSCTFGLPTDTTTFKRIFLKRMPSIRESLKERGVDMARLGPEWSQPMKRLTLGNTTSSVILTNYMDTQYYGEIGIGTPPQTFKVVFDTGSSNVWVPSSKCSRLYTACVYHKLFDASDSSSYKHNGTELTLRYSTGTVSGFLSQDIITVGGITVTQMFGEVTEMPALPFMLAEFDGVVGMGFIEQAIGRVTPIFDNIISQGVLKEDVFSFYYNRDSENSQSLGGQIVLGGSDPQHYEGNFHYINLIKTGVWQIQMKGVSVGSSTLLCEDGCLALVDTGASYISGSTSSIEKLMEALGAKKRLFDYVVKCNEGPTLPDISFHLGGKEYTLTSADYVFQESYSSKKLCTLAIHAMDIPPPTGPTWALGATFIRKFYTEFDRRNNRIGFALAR

[2] = Half-life was determined; type: ADME; settings: human
[3] = biological target: T1, Renin; test: In vitro inhibition of renin in human plasma; type: cell-free
[4] = biological target: T2, Cathepsin E (Homo sapiens, UniProt P14091); test: Selectivity against human cathepsin E
T2 sequence (P14091 whole entry): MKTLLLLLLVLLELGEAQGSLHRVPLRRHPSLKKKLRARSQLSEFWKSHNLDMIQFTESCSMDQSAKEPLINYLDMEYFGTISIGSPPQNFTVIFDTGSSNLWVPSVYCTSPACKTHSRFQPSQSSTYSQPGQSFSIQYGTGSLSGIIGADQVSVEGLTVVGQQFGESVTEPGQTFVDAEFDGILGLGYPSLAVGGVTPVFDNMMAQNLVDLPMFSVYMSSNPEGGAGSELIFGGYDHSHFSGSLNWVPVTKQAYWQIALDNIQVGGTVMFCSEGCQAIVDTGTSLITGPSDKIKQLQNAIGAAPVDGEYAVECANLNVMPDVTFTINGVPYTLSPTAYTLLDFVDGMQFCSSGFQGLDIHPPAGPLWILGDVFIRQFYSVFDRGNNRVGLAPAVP

[5] = biological target: T3, Gastricsin (Homo sapiens, UniProt P20142); test: Selectivity against human gastricsin
T3 sequence (P20142 whole entry): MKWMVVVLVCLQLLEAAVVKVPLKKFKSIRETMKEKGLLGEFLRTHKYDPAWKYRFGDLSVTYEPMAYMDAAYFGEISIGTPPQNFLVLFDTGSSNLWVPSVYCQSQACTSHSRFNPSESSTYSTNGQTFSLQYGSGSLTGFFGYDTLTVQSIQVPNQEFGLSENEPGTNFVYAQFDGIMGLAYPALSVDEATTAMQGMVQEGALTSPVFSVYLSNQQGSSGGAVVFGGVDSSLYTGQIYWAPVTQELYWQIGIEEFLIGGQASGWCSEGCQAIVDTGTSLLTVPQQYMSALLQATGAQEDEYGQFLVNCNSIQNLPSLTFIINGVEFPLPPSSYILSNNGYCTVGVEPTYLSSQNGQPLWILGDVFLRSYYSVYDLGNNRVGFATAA

[6] = biological target: Cathepsin D (Homo sapiens, UniProt P07339); test: Selectivity against human cathepsin D
[7] = biological target: Pepsin A (Homo sapiens, UniProt P0DJD9); test: Selectivity against human pepsin
Chain of Pepsin A (P0DJD9 whole entry): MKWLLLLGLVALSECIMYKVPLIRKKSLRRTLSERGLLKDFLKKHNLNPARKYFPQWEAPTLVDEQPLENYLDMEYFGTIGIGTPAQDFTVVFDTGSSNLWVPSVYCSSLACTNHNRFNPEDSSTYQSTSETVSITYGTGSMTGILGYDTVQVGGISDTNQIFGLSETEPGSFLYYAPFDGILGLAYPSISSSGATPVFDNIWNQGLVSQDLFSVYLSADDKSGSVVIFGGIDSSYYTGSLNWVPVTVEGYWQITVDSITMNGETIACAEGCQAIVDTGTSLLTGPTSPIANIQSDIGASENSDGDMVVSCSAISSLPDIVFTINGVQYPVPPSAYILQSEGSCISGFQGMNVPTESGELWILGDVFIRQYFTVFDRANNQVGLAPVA

Chain of Cathepsin D (P07339 65-162 limits assumed): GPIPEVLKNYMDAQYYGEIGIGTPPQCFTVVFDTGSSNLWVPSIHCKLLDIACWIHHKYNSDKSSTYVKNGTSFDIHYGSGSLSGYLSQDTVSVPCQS
Chain of Cathepsin D (P07339 169-412 limits assumed): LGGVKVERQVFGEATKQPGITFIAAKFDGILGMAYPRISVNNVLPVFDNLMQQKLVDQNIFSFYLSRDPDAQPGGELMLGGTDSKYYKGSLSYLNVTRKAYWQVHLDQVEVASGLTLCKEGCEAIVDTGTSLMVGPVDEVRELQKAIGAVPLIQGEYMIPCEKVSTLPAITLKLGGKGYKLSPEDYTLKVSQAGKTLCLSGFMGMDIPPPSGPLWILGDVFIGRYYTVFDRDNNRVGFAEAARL

Row | Structure (SMILES) | IC50 [1] | half-life [2] | IC50 [3] | IC50 [4] | IC50 [5] | IC50 [6] | IC50 [7]
1 | COc1ccc(C[C@H](NC(=O)[C@H]2CC[C@@H](N)CC2)C(=O)N[C@@H](Cc2cnc[nH]2)C(=O)N[C@@H](CC2CCCCC2)[C@@H](O)[C@@H](O)CCc2ccccn2)cc1 | 4.2 nM | ~1.5 h | 5.3 nM |  |  |  | 
2 | NC1CCN(C(=O)C[C@@H](Cc2ccccc2)C(=O)N[C@@H](Cc2c[nH]cn2)C(=O)N[C@@H](CC2CCCCC2)[C@@H](O)[C@@H](O)CCc2ccccn2)CC1 |  | 1.52 h |  | > 100000 nM | > 100000 nM | > 100000 nM | > 100000 nM
3 | NC1CCN(C(=O)C[C@@H](Cc2cccc3ccccc23)C(=O)N[C@@H](Cc2cnc[nH]2)C(=O)N[C@@H](CC2CCCCC2)[C@@H](O)[C@@H](O)CCc2ccccn2)CC1 | 0.13 nM |  | 0.79 nM |  |  |  | 
4 | NC1CCN(C(=O)O[C@@H](Cc2ccccc2)C(=O)N[C@@H](Cc2cnc[nH]2)C(=O)N[C@@H](CC2CCCCC2)[C@@H](O)[C@@H](O)CCc2ccccn2)CC1 | 0.53 nM |  | 0.37 nM |  |  |  | 
5 | CCC[C@H](NC(=O)[C@@H](CC(=O)N1CCC(N)CC1)Cc1ccccc1)C(=O)N[C@@H](CC1CCCCC1)[C@@H](O)[C@@H](O)CCc1ccccn1 | 0.68 nM |  | 1.3 nM |  |  |  | 
6 | CCOC(=O)CCCCC(=O)N[C@@H](Cc1ccccc1)C(=O)N[C@@H](Cc1c[nH]cn1)C(=O)N[C@@H](CC1CCCCC1)[C@@H](O)[C@@H](O)CCc1ccccn1 | 0.69 nM |  | 0.75 nM |  |  |  | 
7 | NC1CCN(S(=O)(=O)C[C@@H](Cc2ccccc2)C(=O)N[C@@H](Cc2cnc[nH]2)C(=O)N[C@@H](CC2CCCCC2)[C@@H](O)[C@@H](O)CCc2ccccn2)CC1 | 0.7 nM | ~5 h | 0.54 nM |  |  |  | 
8 | CC(C)(C)S(=O)(=O)C[C@@H](Cc1ccccc1)C(=O)N[C@@H](Cc1c[nH]cn1)C(=O)N[C@@H](CC1CCCCC1)[C@@H](O)[C@@H](O)CCc1ccccn1 | 0.17 nM | 2.85 h | 0.43 nM |  |  |  | 
9 | CN(CCN(C)C(=O)N1CCOCC1)C(=O)O[C@@H](Cc1ccccc1)C(=O)N[C@@H](Cc1c[nH]cn1)C(=O)N[C@@H](CC1CCCCC1)[C@@H](O)[C@@H](O)CCc1ccccn1 | 0.16 nM |  | 0.14 nM |  |  |  | 
10 | N[C@H]1CC[C@@H](C(=O)N[C@@H](Cc2ccccc2)C(=O)N[C@@H](Cc2cnc[nH]2)C(=O)N[C@@H](CC2CCCCC2)[C@@H](O)[C@@H](O)CCc2ccccn2)CC1 | 0.5 nM | < 0.05 h | 0.47 nM |  |  |  | 
11 | O=C(N[C@@H](Cc1cnc[nH]1)C(=O)N[C@@H](CC1CCCCC1)[C@@H](O)[C@@H](O)CCc1ccccn1)[C@@H](CC(=O)N1CCOCC1)Cc1ccccc1 | 1.1 nM | 0.367 h | 1.1 nM |  |  |  | 
12 | CSC[C@H](NC(=O)[C@@H](CC(=O)N1CCC(N)CC1)Cc1ccccc1)C(=O)N[C@@H](CC1CCCCC1)[C@@H](O)[C@@H](O)CCc1ccccn1 | 0.26 nM |  | 0.25 nM |  |  |  | 
13 | N[C@H]1CC[C@@H](S(=O)(=O)C[C@@H](Cc2ccccc2)C(=O)N[C@@H](Cc2cnc[nH]2)C(=O)N[C@@H](CC2CCCCC2)[C@@H](O)[C@@H](O)CCc2ccccn2)CC1 | 0.31 nM |  | 0.31 nM |  |  |  | 
